Entries after “also recorded” stand apart in the source; their conditions may differ. One block for each compound: values may come before it.
Tests used:
APC:protein S [1] = assay: Modified dilute prothrombin time clotting assay with glycolipid vesicles added to normal plasma; assay type: biochemical, human; conditions: for effect on APC:protein S anticoagulant response: 0-100 mg/ml; for anticoagulant response of plasma to APC:protein S (clotting time prolongation, modified PT assay): glycolipid vesicles added to normal plasma, APC plus protein S present; for effect on baseline clotting times: without APC or protein S added
Protocol: Anticoagulant response to APC:protein S. Modified dilute prothrombin time based assays were performed as previously described. Briefly, 7.5 μl of test plasma was mixed with fibrinogen (0.6 mg/ml final concentration) and APC (8.7 nM final) plus protein S (28 nM final) or buffer, and incubated 3 min at 37° C. (100 μl total volume). Clotting times were measured after addition of 50 μl of recombinant human tissue factor (Innovin from DADE, Miami, Fla.) diluted 1:40 in Tris (tris[hydroxymethyl] aminomethane)-buffered saline containing 0.5% bovine serum albumin (TBSA) and 30 mM CaCl2. Baseline clotting times without addition of APC:protein S were also determined. For studies of the effects of glycolipid vesicles or glucocerebrosidase treatment on clotting assays, a 1:64 dilution of Innovin was used in the presence or absence of APC and protein S. In the study of the effect of glucocerebrosidase, 13 nM APC and 42 nM protein S were employed.
Preparation of glycolipid vesicles. To prepare extruded glycolipid vesicles, dried glycolipids GlcCer, Gb3Cer, galactosylceramide (GalCer) (Sigma), and LacCer were suspended at 100 μg/ml in TBS at room temperature, vortexed 5 min, and passed through a 0.2 μm filter (Osmonics, Livermore, Calif.). Concentrations of glycolipids recovered after filtration were determined by HPLC analysis as described above.

factor Va [2] = molecular target: T1, factor Va (Homo sapiens, UniProt P12259); assay: Factor Va inactivation by APC/protein S with 1, 5 or 10% glycolipid in PC/PS vesicles (Example 7); assay type: biochemical; conditions: for effect on factor Va inactivation by APC:protein S, glycolipid incorporated into PC/PS vesicles (overall statement): glycolipid content not specified; for enhancement of factor Va inactivation by APC/protein S: APC 0.16 nM, 5 min
T1 construct: APC cleaves the heavy chain of factor Va at Arg506, and then Arg306, and perhaps Arg679
T1 sequence (P12259 29-737 limits assumed): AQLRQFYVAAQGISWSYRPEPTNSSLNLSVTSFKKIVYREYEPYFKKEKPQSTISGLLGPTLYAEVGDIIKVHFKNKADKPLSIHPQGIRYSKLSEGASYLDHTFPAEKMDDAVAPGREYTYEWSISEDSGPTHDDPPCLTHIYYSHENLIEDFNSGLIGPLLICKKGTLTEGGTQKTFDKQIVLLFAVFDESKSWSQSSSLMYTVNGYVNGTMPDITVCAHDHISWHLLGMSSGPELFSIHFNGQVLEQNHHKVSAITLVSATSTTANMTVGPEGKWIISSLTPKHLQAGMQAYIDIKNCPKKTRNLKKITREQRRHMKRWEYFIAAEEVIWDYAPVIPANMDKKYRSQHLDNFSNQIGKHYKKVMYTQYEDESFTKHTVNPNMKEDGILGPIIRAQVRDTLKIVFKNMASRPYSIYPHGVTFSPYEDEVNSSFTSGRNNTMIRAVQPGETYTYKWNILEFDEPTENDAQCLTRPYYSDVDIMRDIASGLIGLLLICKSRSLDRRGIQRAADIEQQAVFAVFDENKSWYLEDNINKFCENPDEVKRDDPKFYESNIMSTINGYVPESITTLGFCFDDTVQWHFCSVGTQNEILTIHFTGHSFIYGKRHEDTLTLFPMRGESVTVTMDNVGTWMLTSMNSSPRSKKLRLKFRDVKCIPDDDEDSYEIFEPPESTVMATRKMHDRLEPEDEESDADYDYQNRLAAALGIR
T1 sequence (P12259 1574-2224 limits assumed): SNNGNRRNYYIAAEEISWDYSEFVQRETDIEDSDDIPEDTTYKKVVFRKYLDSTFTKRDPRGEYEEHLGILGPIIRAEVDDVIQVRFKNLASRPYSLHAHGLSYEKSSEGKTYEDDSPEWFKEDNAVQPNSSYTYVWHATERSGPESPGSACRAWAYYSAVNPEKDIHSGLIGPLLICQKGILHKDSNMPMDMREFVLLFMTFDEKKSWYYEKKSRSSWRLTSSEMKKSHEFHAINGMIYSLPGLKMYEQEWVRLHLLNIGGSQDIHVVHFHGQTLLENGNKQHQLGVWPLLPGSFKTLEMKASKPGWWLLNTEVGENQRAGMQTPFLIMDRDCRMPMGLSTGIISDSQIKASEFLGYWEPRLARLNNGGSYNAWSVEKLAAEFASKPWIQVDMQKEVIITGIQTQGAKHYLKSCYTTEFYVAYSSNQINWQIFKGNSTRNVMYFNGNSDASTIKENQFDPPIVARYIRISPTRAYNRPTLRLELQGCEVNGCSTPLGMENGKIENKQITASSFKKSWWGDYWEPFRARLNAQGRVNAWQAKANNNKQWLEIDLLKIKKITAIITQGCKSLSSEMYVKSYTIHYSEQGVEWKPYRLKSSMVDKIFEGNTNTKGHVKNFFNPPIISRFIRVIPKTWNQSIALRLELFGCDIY
Protocol: FIGS. 6A-6E. Anticoagulant response of plasma to APC/protein S is enhanced by addition of glycolipids. Purified factor Va (1.5 nM) was incubated with APC (0.16 nM final)/protein S (18 nM final) and varying lipid vesicles to allow factor Va inactivation for five minutes and then the residual factor Va activity was determined using prothrombin time clotting assays.
Purified factor Va (1.5 nM) was incubated with APC (0.16 nM final)/protein S (18 nM final) and varying lipids vesicles to allow factor Va inactivation for 5 min., and then the residual factor Va activity was determined using prothrombin time clotting assays.

APC:protein S [3] = assay: Factor Xa-1-stage clotting assays without addition of exogenous lipids; assay type: biochemical; conditions: presence versus absence of APC:protein S; data not shown
factor Va [4] = molecular target: T1, factor Va; assay: Factor Va inactivation assay with purified proteins (GlcCer vesicles and multicomponent PC/PS/GlcCer vesicles); assay type: biochemical
Protocol: Large unilamellar multicomponent vesicles were prepared generally as described. (27) Appropriate aliquots of PC, PS and GlcCer were mixed and dried under nitrogen. The lipid mixture was hydrated at a concentration of 6.25 mM lipid in TBS and freeze-thawed 10 times using liquid nitrogen, and the solution of vesicles was passed 15 times through a 0.2 μm filter (Millipore). Concentrations of glycolipid recovered after filtration were determined by HPLC analysis as described above. PC concentration was determined by an enzymatic […] method (Phospholipids B kit, Wako Chemical USA, Inc., Richmond, Va.).
Factor Va inactivation assay. To study the time course of factor Va inactivation by APC:protein S, mixtures containing GlcCer vesicles or control PC vesicles (21.5 μM) or buffer, APC (6 nM final), protein S (18 nM final), and factor Va (1.5 nM) with 5 mM CaCl2 were incubated at 37° C. Aliquots were withdrawn at various times and the reaction was quenched by adding ethylenediamine tetraacetic acid (EDTA) prior to determination of residual factor Va activity. […] The residual factor Va activity was quantitated using prothrombin time clotting assays and standard log-log calibration curves of clotting time versus factor Va concentration generated using purified factor Va and factor V deficient plasma. […]

[5] = 1% glycolipid in PC/PS vesicles
[6] = 5% glycolipid in PC/PS vesicles
[7] = 10% glycolipid in PC/PS vesicles

Compound: OC[C@H]1OC(O)[C@H](O)[C@@H](O)[C@@H]1O (stereo partly drawn) [D-Glc, reference compound]
- effect on APC:protein S anticoagulant response (APC:protein S [1]; data not shown): Neither D-Glc alone nor ceramide alone (0-100 mg/ml) affected
- anticoagulant response of plasma to APC:protein S (clotting time prolongation, modified PT assay) (APC:protein S [1]): neither D-Glc alone nor ceramide alone was anticoagulantly active

Compound: ceramide [reference compound]
- effect on APC:protein S anticoagulant response (APC:protein S [1]; data not shown): Neither D-Glc alone nor ceramide alone (0-100 mg/ml) affected
- anticoagulant response of plasma to APC:protein S (clotting time prolongation, modified PT assay) (APC:protein S [1]): neither D-Glc alone nor ceramide alone was anticoagulantly active

Compound: galactosylceramide [GalCer]
- anticoagulant response of plasma to APC:protein S (clotting time prolongation, modified PT assay) (APC:protein S [1]): did not enhance APC:protein S action; also recorded: inactive
- effect on baseline clotting times (APC:protein S [1]): no effect on baseline clotting times
- enhancement of factor Va inactivation (factor Va [2]; above 10 μg/ml of total lipid, 5 and 10% glycolipid in PC/PS vesicles): enhanced factor Va inactivation by APC/protein C like GlcCer in PC/PS vesicle
- effect on factor Va inactivation compared with GlcCer in PC/PS (factor Va [2]; below 10 μg/ml): not as well as GlcCer in PC/PS
- effect on factor Va inactivation by APC:protein S, glycolipid incorporated into PC/PS vesicles (overall statement) (factor Va [2]): significantly directly enhance inactivation

Compound: globotriaosylceramide [Gb3Cer]
- anticoagulant response of plasma to APC:protein S (clotting time prolongation, modified PT assay) (APC:protein S [1]): activity very similar to GlcCer; also recorded: approximately equally active; also recorded: enhanced
- enhancement of factor Va inactivation by APC/protein S (factor Va [2]; [5]): enhanced inactivation of factor Va significantly even at 1 μg/ml
- enhancement of factor Va inactivation by APC/protein S (factor Va [2]; [6]): enhanced much more
- effect on factor Va inactivation by APC:protein S, glycolipid incorporated into PC/PS vesicles (overall statement) (factor Va [2]): significantly directly enhance inactivation

Now from value to compound, other results behind:

- effect on factor Va inactivation by APC:protein S, glycolipid incorporated into PC/PS vesicles (overall statement) (factor Va [2]): much weaker effect
Compound: globotetraosylceramide [Gb4Cer]

- enhancement of factor Va inactivation by APC/protein S (factor Va [2]; [5]): little enhancement effect
- factor Va inactivation reached (factor Va [2]; [6]): up to 60%
- concentration from which the enhancement effect was observed (factor Va [2]; 5 and 10% GlcCer in PC/PS vesicle): ≥ 1 µg/mL
- factor Va inactivation reached (factor Va [2]; [7]): up to 60%
Compound: glucosylceramide [GlcCer]
- clotting time prolongation, modified PT assay (APC:protein S [1]; APC alone added without protein S): much less clotting time prolongation
- anticoagulant response of plasma to APC:protein S (clotting time prolongation, modified PT assay) (APC:protein S [1]): dose-dependent marked prolongation; also recorded: dose-dependently enhances the anticoagulant response; also recorded: dose-dependently enhanced this anticoagulant response; also recorded: very active
- effect on clotting times, modified PT assay (APC:protein S [1]; protein S alone added in the absence of APC, data not shown): no effect on clotting times
- effect on baseline clotting times (APC:protein S [1]): without affecting baseline clotting time
- clotting time prolongation in factor Xa-1-stage assays (APC:protein S [3]): clotting time prolongation in the presence but not absence of APC:protein S
- inactivation of purified factor Va by APC:protein S (overall statement) (factor Va [4]): directly enhanced inactivation of purified factor Va; also recorded: enhances factor Va inactivation
- enhancement of factor Va inactivation by APC/protein S (factor Va [2]; [6]): enhanced inactivation of factor Va much more
- enhancement of factor Va inactivation by APC/protein S (factor Va [2]; [7]): enhanced inactivation of factor Va much more
- effect on factor Va inactivation by APC:protein S, glycolipid incorporated into PC/PS vesicles (overall statement) (factor Va [2]): significantly directly enhance inactivation

- enhancement of factor Va inactivation by APC/protein S (factor Va [2]; [5]): little like GlcCer
- factor Va inactivation reached (factor Va [2]; [7]): up to 90%
Compound: lactosylceramide [LacCer]
- anticoagulant response of plasma to APC:protein S (clotting time prolongation, modified PT assay) (APC:protein S [1]): much lower activity; also recorded: does not possess this anticoagulant property
- enhancement of factor Va inactivation by APC/protein S (factor Va [2]; [7]): dramatically enhanced factor Va inactivation
- effect on factor Va inactivation by APC:protein S, glycolipid incorporated into PC/PS vesicles (overall statement) (factor Va [2]): significantly directly enhance inactivation

From patent US6756208B2, “Plasma glucosylceramide deficiency as risk factor for thrombosis and modulator of anticoagulant protein C” (priority 2001, dated 2004)
